Source: ChEMBL document CHEMBL3885861, “Open TG-GATES”

Species on record: Rattus norvegicus
Test: Open TG-GATES - Regimen: Single
Format: toxicity, organism-based, Sprague-Dawley
Set-up: regimen Single, gender Male, age 6 weeks
Details: in vivo, po, route gavage; for TP / gamma-GTP / ALP / ALT / AST / BUN / CRE / DBIL / GLC / K / LDH / Na / PL / RALB / TBIL / TC / TG: tissue Plasma; for APTT / Bas / Eos / Fbg / Hb / Ht / Lym / MCHC / MCV / Mono / PT / Plat / RBC / Ret / WBC: tissue Blood; for KIDNEY_L / KIDNEY_R / KIDNEY_TOTAL: tissue Kidney; for LIVER: tissue Liver
[1] = 0 mg/kg, 24 h, dose level Control
[2] = 600 mg/kg, 24 h, dose level Low

**Q.** Which results are given for `O=C1NC(=O)C(c2ccccc2)(c2ccccc2)N1` [PHENYTOIN]?
**A.** TP [1]: 5.6 g/dL; gamma-GTP [1]: 1 IU/L; TERMINAL_BW (600 mg/kg, 3 h, dose level Low): 210.6 g; APTT (600 mg/kg, 3 h, dose level Low): 16.8 s; Bas (600 mg/kg, 3 h, dose level Low): 0.2%; Eos (600 mg/kg, 3 h, dose level Low): 0.8%; Fbg (600 mg/kg, 3 h, dose level Low): 264.8 mg/dL; Hb (600 mg/kg, 3 h, dose level Low): 13.1 g/dL; Ht (600 mg/kg, 3 h, dose level Low): 39.2%; Lym (600 mg/kg, 3 h, dose level Low): 79%; MCHC (600 mg/kg, 3 h, dose level Low): 33.5%; MCV (600 mg/kg, 3 h, dose level Low): 62.3 fL; Mono (600 mg/kg, 3 h, dose level Low): 2.4%; PT (600 mg/kg, 3 h, dose level Low): 14 s; Plat (600 mg/kg, 3 h, dose level Low): 116 x10_4/uL; RBC (600 mg/kg, 3 h, dose level Low): 629.4 x10_4/ul; Ret (600 mg/kg, 3 h, dose level Low): 8%; KIDNEY_L (600 mg/kg, 3 h, dose level Low): 0.9 g; KIDNEY_R (600 mg/kg, 3 h, dose level Low): 1 g; KIDNEY_TOTAL (600 mg/kg, 3 h, dose level Low): 1.9 g; LIVER (600 mg/kg, 3 h, dose level Low): 8.8 g; ALP (600 mg/kg, 3 h, dose level Low): 1512 IU/L; ALT (600 mg/kg, 3 h, dose level Low): 36.4 IU/L; AST (600 mg/kg, 3 h, dose level Low): 78.6 IU/L; BUN (600 mg/kg, 3 h, dose level Low): 10 mg/dL; CRE (600 mg/kg, 3 h, dose level Low): 0.2 mg/dL; DBIL (600 mg/kg, 3 h, dose level Low): 0.012 mg/dL; GLC (600 mg/kg, 3 h, dose level Low): 186.6 mg/dL; K (600 mg/kg, 3 h, dose level Low): 3.9 meq/L; LDH (600 mg/kg, 3 h, dose level Low): 113.2 IU/L; Na (600 mg/kg, 3 h, dose level Low): 141.8 meq/L; PL (600 mg/kg, 3 h, dose level Low): 143.4 mg/dL; RALB (600 mg/kg, 3 h, dose level Low): 2.5 g/dL; TBIL (600 mg/kg, 3 h, dose level Low): 0.052 mg/dL; TC (600 mg/kg, 3 h, dose level Low): 82 mg/dL; TG (600 mg/kg, 3 h, dose level Low): 36.2 mg/dL; TP (600 mg/kg, 3 h, dose level Low): 5.4 g/dL; gamma-GTP (600 mg/kg, 3 h, dose level Low): 1.2 IU/L; TERMINAL_BW (600 mg/kg, 6 h, dose level Low): 208.2 g; APTT (600 mg/kg, 6 h, dose level Low): 18.6 s; Bas (600 mg/kg, 6 h, dose level Low): 0.4%; Eos (600 mg/kg, 6 h, dose level Low): 0.8%; Fbg (600 mg/kg, 6 h, dose level Low): 274.8 mg/dL; Hb (600 mg/kg, 6 h, dose level Low): 13 g/dL; Ht (600 mg/kg, 6 h, dose level Low): 38.2%; Lym (600 mg/kg, 6 h, dose level Low): 77.6%; MCHC (600 mg/kg, 6 h, dose level Low): 33.9%; MCV (600 mg/kg, 6 h, dose level Low): 61 fL; Mono (600 mg/kg, 6 h, dose level Low): 2.6%; PT (600 mg/kg, 6 h, dose level Low): 14.3 s; RBC (600 mg/kg, 6 h, dose level Low): 626.4 x10_4/ul; Ret (600 mg/kg, 6 h, dose level Low): 7.9%; WBC (600 mg/kg, 6 h, dose level Low): 89.4 x10_2/uL; KIDNEY_L (600 mg/kg, 6 h, dose level Low): 1 g; KIDNEY_R (600 mg/kg, 6 h, dose level Low): 0.9 g; KIDNEY_TOTAL (600 mg/kg, 6 h, dose level Low): 1.9 g; LIVER (600 mg/kg, 6 h, dose level Low): 8.7 g; ALP (600 mg/kg, 6 h, dose level Low): 1510.8 IU/L; ALT (600 mg/kg, 6 h, dose level Low): 30.8 IU/L; AST (600 mg/kg, 6 h, dose level Low): 71.8 IU/L; BUN (600 mg/kg, 6 h, dose level Low): 8.6 mg/dL; CRE (600 mg/kg, 6 h, dose level Low): 0.2 mg/dL; DBIL (600 mg/kg, 6 h, dose level Low): 0.01 mg/dL; GLC (600 mg/kg, 6 h, dose level Low): 181.8 mg/dL; K (600 mg/kg, 6 h, dose level Low): 4.2 meq/L; LDH (600 mg/kg, 6 h, dose level Low): 89 IU/L; Na (600 mg/kg, 6 h, dose level Low): 142.8 meq/L; PL (600 mg/kg, 6 h, dose level Low): 135.6 mg/dL; RALB (600 mg/kg, 6 h, dose level Low): 2.5 g/dL; TBIL (600 mg/kg, 6 h, dose level Low): 0.052 mg/dL; TC (600 mg/kg, 6 h, dose level Low): 74.8 mg/dL; TG (600 mg/kg, 6 h, dose level Low): 26 mg/dL; TP (600 mg/kg, 6 h, dose level Low): 5.3 g/dL; gamma-GTP (600 mg/kg, 6 h, dose level Low): 1.4 IU/L; TERMINAL_BW (600 mg/kg, 9 h, dose level Low): 206.7 g; APTT (600 mg/kg, 9 h, dose level Low): 16 s; Bas (600 mg/kg, 9 h, dose level Low): 0.2%; Eos (600 mg/kg, 9 h, dose level Low): 1%; Fbg (600 mg/kg, 9 h, dose level Low): 288.8 mg/dL; Hb (600 mg/kg, 9 h, dose level Low): 13.3 g/dL; Ht (600 mg/kg, 9 h, dose level Low): 39.5%; Lym (600 mg/kg, 9 h, dose level Low): 73.6%; MCHC (600 mg/kg, 9 h, dose level Low): 33.7%; MCV (600 mg/kg, 9 h, dose level Low): 60.6 fL; Mono (600 mg/kg, 9 h, dose level Low): 2.4%; PT (600 mg/kg, 9 h, dose level Low): 14.3 s; Plat (600 mg/kg, 9 h, dose level Low): 109.6 x10_4/uL; RBC (600 mg/kg, 9 h, dose level Low): 653.4 x10_4/ul; Ret (600 mg/kg, 9 h, dose level Low): 7.3%; WBC (600 mg/kg, 9 h, dose level Low): 74.9 x10_2/uL; KIDNEY_L (600 mg/kg, 9 h, dose level Low): 0.9 g; KIDNEY_R (600 mg/kg, 9 h, dose level Low): 0.9 g; KIDNEY_TOTAL (600 mg/kg, 9 h, dose level Low): 1.8 g; LIVER (600 mg/kg, 9 h, dose level Low): 7.7 g; ALP (600 mg/kg, 9 h, dose level Low): 1491.4 IU/L; ALT (600 mg/kg, 9 h, dose level Low): 29.6 IU/L; AST (600 mg/kg, 9 h, dose level Low): 72.4 IU/L; BUN (600 mg/kg, 9 h, dose level Low): 8.2 mg/dL; CRE (600 mg/kg, 9 h, dose level Low): 0.2 mg/dL; DBIL (600 mg/kg, 9 h, dose level Low): 0.016 mg/dL; GLC (600 mg/kg, 9 h, dose level Low): 186 mg/dL; K (600 mg/kg, 9 h, dose level Low): 4 meq/L; LDH (600 mg/kg, 9 h, dose level Low): 80.8 IU/L; Na (600 mg/kg, 9 h, dose level Low): 141.2 meq/L; PL (600 mg/kg, 9 h, dose level Low): 125.8 mg/dL; RALB (600 mg/kg, 9 h, dose level Low): 2.5 g/dL; TBIL (600 mg/kg, 9 h, dose level Low): 0.064 mg/dL; TC (600 mg/kg, 9 h, dose level Low): 69.6 mg/dL; TG (600 mg/kg, 9 h, dose level Low): 18 mg/dL; TP (600 mg/kg, 9 h, dose level Low): 5.4 g/dL; gamma-GTP (600 mg/kg, 9 h, dose level Low): 1 IU/L; TERMINAL_BW [2]: 217.3 g; APTT [2]: 16.9 s; Bas [2]: 0.2%; Eos [2]: 1.2%; Fbg [2]: 286 mg/dL; Hb [2]: 13.7 g/dL; Ht [2]: 40.1%; Lym [2]: 78.4%; MCHC [2]: 34.2%; MCV [2]: 62.9 fL; Mono [2]: 2.4%; PT [2]: 14.5 s; Plat [2]: 120.7 x10_4/uL; RBC [2]: 637.4 x10_4/ul; Ret [2]: 7.3%; WBC [2]: 101.8 x10_2/uL; KIDNEY_L [2]: 1 g; KIDNEY_R [2]: 1 g; KIDNEY_TOTAL [2]: 1.9 g; LIVER [2]: 9.7 g; ALP [2]: 1621 IU/L; ALT [2]: 34.6 IU/L; AST [2]: 67.6 IU/L; BUN [2]: 14 mg/dL; CRE [2]: 0.2 mg/dL; DBIL [2]: 0.022 mg/dL; GLC [2]: 177.6 mg/dL; K [2]: 4.4 meq/L; LDH [2]: 123.6 IU/L; Na [2]: 141.6 meq/L; PL [2]: 143 mg/dL; RALB [2]: 2.6 g/dL; TBIL [2]: 0.04 mg/dL; TC [2]: 75.4 mg/dL; TG [2]: 95.8 mg/dL; TP [2]: 5.6 g/dL
